Measurements taken from patent publication US11814407B2, “Multiple coupling and oxidation method” (Roche Innovation Center Copenhagen A/S, priority 2017, dated 2023).
Entries after “also recorded” stand apart in the source; their conditions may differ.

How the values were obtained:
[1] = Solubility of oxazaphospholidine phosphoramidite monomers in solvent, visual examination; assay type: physicochemical; conditions: for Solubility over 24 hours in MeCN with addition of pyridine: MeCN + 2.5% pyridine; for Solubility after 24 hours in MeCN: MeCN alone
Protocol: To a 1.5 mL vial was added 0.013 mmol of amidite after which the solid material was dissolved in 0.13 mL of solvent. Hereafter, the vial was capped, vortexed, and finally left at room temperature for 24 hours. Then, the dissolved material was visually examined regarding the solubility (FIG. 1). If the solution appeared cloudy or otherwise non-homogenous the solubility was set to “no”. If the solution appeared completely homogenous the solubility was set to “yes” (examination repeated after 24 hours).
Solubility of the following monomers was determined as per example 7.

[2] = Stability of amidite solutions by HPLC-MS (UV 254 nm, normalised to 0 hours); assay type: physicochemical
Protocol: Stability Determination Method: To complete the analysis the stability of the amidite was investigated using an Agilent 1100 series HPLC-MS with a gradient from 80% A (1% NH4OH in H2O) to 100% B (20% A in MeCN) and a Waters Xterra MS C18 2.1×100 mm column. The mass and UV peak of the mother compound was identified at 0 hours and at 24 hours. Hereafter, the relative stability compared to other by-products was reported by integrating the UV chromatogram (254 nm) and normalizing the area to the chromatogram recorded at 0 hours (FIG. 2).
To a 1.5 mL vial was added 0.013 mmol of amidite after which the solid material was dissolved in 0.13 mL of solvent (with and without Et3N, approximately 5-10 eq). Hereafter, the vial was capped, vortexed, and finally left at room temperature for 24 hours. To investigate the stability of the amidite an Agilent 1100 series HPLC-MS with a gradient from 80% A (1% NH4OH in H2O) to 100% B (20% A in MeCN) and a Waters Xterra MS C18 2.1×100 mm column was used. The mass and UV peak of the mother compound was identified at 0 hours and at 24 hours. Hereafter, the relative stability compared to other by-products was reported. This was again repeated after 48 hours.

COc1ccc(C(OCC2OC(n3cnc4c(NC(=O)c5ccccc5)ncnc43)CC2OP2OC(c3ccccc3)C3CCCN32)(c2ccccc2)c2ccc(OC)cc2)cc1 [D-DNA A]
Solubility over 24 hours in MeCN with addition of pyridine [1]: the solubility of the monomer is preserved
Solubility after 24 hours in MeCN [1]: not soluble

COc1ccc(C(OCC23COC(C(n4cnc5c(NC(=O)c6ccccc6)ncnc54)O2)C3OP2OC(c3ccccc3)C3CCCN32)(c2ccccc2)c2ccc(OC)cc2)cc1 [D-LNA A]
Solubility over 24 hours in MeCN with addition of pyridine [1]: the solubility of the monomer is preserved
Solubility after 24 hours in MeCN [1]: not soluble

COc1ccc(C(OCC2OC(n3cnc4c(NC(=O)c5ccccc5)ncnc43)CC2OP2OC(c3ccccc3)C3CCCN32)(c2ccccc2)c2ccc(OC)cc2)cc1 [L-DNA A]
Solubility over 24 hours in MeCN with addition of pyridine [1]: kept in solution; also recorded: the solubility of the monomer is preserved
Solubility after 24 hours in MeCN [1]: not sufficient to keep the monomer in solution; also recorded: not soluble

COc1ccc(C(OCC23COC(C(n4cnc5c(NC(=O)c6ccccc6)ncnc54)O2)C3OP2OC(c3ccccc3)C3CCCN32)(c2ccccc2)c2ccc(OC)cc2)cc1 [L-LNA A]
Stability in solution ([2]; MeCN + Et3N (approximately 5-10 eq), after 24 hours): completely stable
Stability in solution ([2]; MeCN + Et3N (approximately 5-10 eq), after 48 hours): the majority of the L-LNA A is preserved
Stability in solution ([2]; MeCN only, after 24 hours, room temperature): most of the L-LNA A was degraded
Stability in solution ([2]; MeCN only, after 48 hours, room temperature): completely degraded

COc1ccc(C(OCC23COC(C(n4cnc5c(=O)[nH]c(N=CN(C)C)nc54)O2)C3OP2OC(c3ccccc3)C3CCCN32)(c2ccccc2)c2ccc(OC)cc2)cc1 [L-LNA G-DMF]
Amidite left after 24 hours ([2]; DCM (best solvent), 24 hours, room temperature): 10%
Stability in the solvents where the monomer is soluble ([2]; MeCN:DCM, DMF, DMSO, NMP, DCM, DCE, Toluene, 24 hours): tremendous instability
Solubility in solvents ([1]; MeCN, MeCN:DCE, MeCN:Tol, MeCN:acetone, Dioxane, THF): unsoluble
Solubility in solvents ([1]; MeCN:DCM, DMF, DMSO, NMP, DCM, DCE, Toluene): soluble
Solubility in acetonitrile solvents ([1]; acetonitrile solvents): poorly soluble

COc1ccc(C(OC[C@@]23CO[C@@H]([C@H](n4cnc5c(=O)[nH]c(NC(=O)C(C)C)nc54)O2)[C@@H]3O[P@]2O[C@H](c3ccccc3)[C@@H]3CCCN32)(c2ccccc2)c2ccc(OC)cc2)cc1 [L-LNA-G-iBu]
Solubility in all solvents investigated ([1]; 12 different solvents): soluble in all solvents investigated
Soluble after: 24 h MeCN ([1]; 24 h, MeCN, 0.013 mmol amidite in 0.13 mL solvent, room temperature): no
